According to ChEMBL document CHEMBL1138696, “Evans Blue and other dyes as protein tyrosine phosphatase inhibitors” (Bioorg Med Chem Lett, 2004):

Columns and labels:
[1] = target: T1, Tyrosine-protein phosphatase non-receptor type 1 (Homo sapiens, UniProt P18031); assay: Inhibition of human PTPase 1B
T1 sequence (P18031 whole entry): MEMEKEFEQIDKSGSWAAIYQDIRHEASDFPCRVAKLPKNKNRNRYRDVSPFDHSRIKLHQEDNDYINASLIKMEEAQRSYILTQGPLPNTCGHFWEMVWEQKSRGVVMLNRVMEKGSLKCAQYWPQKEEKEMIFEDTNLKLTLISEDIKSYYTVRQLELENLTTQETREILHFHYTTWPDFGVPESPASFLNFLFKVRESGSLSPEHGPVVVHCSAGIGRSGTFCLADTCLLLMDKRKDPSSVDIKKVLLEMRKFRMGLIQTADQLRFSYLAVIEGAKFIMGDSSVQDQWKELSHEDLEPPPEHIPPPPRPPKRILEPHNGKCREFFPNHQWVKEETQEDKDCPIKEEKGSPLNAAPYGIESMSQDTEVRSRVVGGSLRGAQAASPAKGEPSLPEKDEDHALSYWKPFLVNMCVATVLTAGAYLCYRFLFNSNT

[2] = target: T2, Tyrosine-protein phosphatase 1 (Saccharomyces cerevisiae S288c, UniProt P25044); assay: Inhibitory activity against Saccharomyces cerevisiae Tyrosine phosphatase 1
T2 sequence (P25044 whole entry): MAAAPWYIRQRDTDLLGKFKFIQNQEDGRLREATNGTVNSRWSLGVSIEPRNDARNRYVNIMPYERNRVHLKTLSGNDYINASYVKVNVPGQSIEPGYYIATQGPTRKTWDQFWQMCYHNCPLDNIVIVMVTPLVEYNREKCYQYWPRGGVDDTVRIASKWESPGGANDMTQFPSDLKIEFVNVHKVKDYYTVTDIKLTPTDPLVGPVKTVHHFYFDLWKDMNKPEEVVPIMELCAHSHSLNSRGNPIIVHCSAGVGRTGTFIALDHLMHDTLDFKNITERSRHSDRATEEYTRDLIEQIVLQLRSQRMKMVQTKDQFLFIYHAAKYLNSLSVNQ

[3] = Inhibition of human Leukocyte Antigen Related(LAR) protein tyrosine phosphatase D1

SMILES: C/C(=C1/C=CC(=O)C(C(=O)O)=C1)c1ccc(O)c(C(=O)O)c1
- IC50 [1]: 5.2 µM
- IC50 [2]: 30 µM
- IC50 [3]: > 1000 µM

SMILES: O=C(O)c1cc(N=Nc2ccc([N+](=O)[O-])cc2)ccc1O
- IC50 [1]: 210 µM
- IC50 [2]: 630 µM
- IC50 [3]: > 1000 µM

SMILES: Cc1[nH]n(-c2ccccc2)c(=O)c1N=Nc1c(O)cc(S(=O)(=O)O)c2ccccc12
- IC50 [1]: 150 µM
- IC50 [2]: 140 µM
- IC50 [3]: 660 µM

SMILES: O=C1c2ccccc2C(=O)c2c1cc(S(=O)(=O)O)c(O)c2O [Alizarin Red S]
- IC50 [1]: 40 µM
- IC50 [2]: 48 µM
- IC50 [3]: 82 µM

SMILES: Cc1c(C(=O)O)c(O)cc2c1C(=O)c1c(O)c([C@H]3O[C@H](CO)[C@@H](O)[C@H](O)[C@H]3O)c(O)c(O)c1C2=O [CARMINE]
- IC50 [1]: 26 µM
- IC50 [2]: 15 µM
- IC50 [3]: > 1000 µM

SMILES: O=S(=O)(O)c1cc(O)c2c(O)cc(S(=O)(=O)O)cc2c1 [CHROMOTROPATE]
- IC50 [1]: 9.7 µM
- IC50 [2]: 6.5 µM
- IC50 [3]: 570 µM

SMILES: O=S(=O)(O)c1cc(S(=O)(=O)O)c2c(N=Nc3c(O)cc(S(=O)(=O)O)c4ccccc34)c(O)c(S(=O)(=O)O)cc2c1 [E126]
- IC50 [1]: 460 µM
- IC50 [2]: 110 µM

SMILES: COc1cc(S(=O)(=O)O)c(C)cc1N=Nc1c(O)ccc2cc(S(=O)(=O)O)ccc12 [E129]
- IC50 [1]: 33 µM
- IC50 [2]: 410 µM
- IC50 [3]: 90 µM

SMILES: Cc1cc(-c2ccc(/N=N/c3ccc4c(S(=O)(=O)O)cc(S(=O)(=O)O)c(N)c4c3O)c(C)c2)ccc1/N=N/c1ccc2c(S(=O)(=O)O)cc(S(=O)(=O)O)c(N)c2c1O [EVANS BLUE]
- IC50 [1]: 1.3 µM
- IC50 [2]: 1.2 µM
- IC50 [3]: 61 µM

SMILES: O=C1OC2(c3ccc(O)cc3Oc3cc(O)ccc32)c2ccccc21 [FLUORESCEIN]
- IC50 [1]: 600 µM
- IC50 [2]: 850 µM
- IC50 [3]: > 1000 µM

SMILES: O=C(O)c1cc2ccccc2c(Cc2c(O)c(C(=O)O)cc3ccccc23)c1O [PAMOIC ACID]
- IC50 [1]: 310 µM
- IC50 [2]: > 1000 µM
- IC50 [3]: > 1000 µM

SMILES: CC(C)=CC[C@@H](O)C1=CC(=O)c2c(O)ccc(O)c2C1=O [SHIKONIN]
- IC50 [1]: 25 µM
- IC50 [3]: > 1000 µM

SMILES: Cc1cc(-c2ccc(/N=N/c3c(S(=O)(=O)O)cc4cc(S(=O)(=O)O)cc(N)c4c3O)c(C)c2)ccc1/N=N/c1c(S(=O)(=O)O)cc2cc(S(=O)(=O)O)cc(N)c2c1O [TRYPAN BLUE]
- IC50 [1]: 3.9 µM
- IC50 [2]: 7.4 µM
- IC50 [3]: 170 µM
